Test results from patent publication US20240002441A1, “PEPTIDES AND USES THEREOF IN MODULATION OF AMYLOID-BETA PROTEIN DEGRADING PROTEASES” (priority 2020, published 2024).

Key:
MMP-2 = target: T1, MMP-2 (Homo sapiens, UniProt P08253); assay: QFS assay of Aβ-degrading enzymes: MMP-2 (Example 6); format: biochemical; details: MMP2 0.50 ng/μL activated with p-aminophenylmercuric acetate
T1 construct: purchased Sigma Aldrich SRP6270-10UG
T1 sequence (P08253 110-660): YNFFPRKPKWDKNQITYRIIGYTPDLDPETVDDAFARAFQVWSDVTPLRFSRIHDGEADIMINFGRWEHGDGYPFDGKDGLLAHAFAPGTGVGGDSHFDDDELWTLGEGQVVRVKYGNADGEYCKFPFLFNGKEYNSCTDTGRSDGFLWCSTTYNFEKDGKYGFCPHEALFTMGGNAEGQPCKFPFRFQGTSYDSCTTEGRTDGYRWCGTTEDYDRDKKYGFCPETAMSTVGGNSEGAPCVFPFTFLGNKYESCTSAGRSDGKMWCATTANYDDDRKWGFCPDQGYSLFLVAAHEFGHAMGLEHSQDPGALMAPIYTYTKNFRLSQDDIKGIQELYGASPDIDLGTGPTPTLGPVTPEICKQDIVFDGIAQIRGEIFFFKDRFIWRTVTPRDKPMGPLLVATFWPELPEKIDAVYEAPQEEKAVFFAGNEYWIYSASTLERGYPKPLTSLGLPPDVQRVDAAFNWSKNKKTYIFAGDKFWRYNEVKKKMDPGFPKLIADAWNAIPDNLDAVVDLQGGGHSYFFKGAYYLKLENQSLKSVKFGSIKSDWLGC
Experimental: Plate reader-based enzyme assays were performed using a quenched fluorescent substrate (QFS) in a 96-well format using a SpectraMAX M4 Microplate reader (Molecular Devices). The increase in fluorescence following addition of QFS (40 μM) was taken as evidence of enzyme activity. Fluorescence was monitored over 2 h at 37° C. using κEx=320 nm and λEm=405 nm. Assays were conducted in black 96-well plates. Specific enzyme activity was expressed as a rate of substrate cleavage calculated using a standard curve of 7-methoxy-coumarin-4-acetic acid.
In all plate reader-based enzyme assays using QFS, the reaction rate (μmol of substrate cleaved/min) was calculated using linear regression analysis (GraphPad Prism software version 8.01). The reaction rates calculated were used to generate the enzyme kinetic parameters Vmax and Km through non-linear regression analysis (GraphPad Prism software, version 8.01; Michaelis-Menten equation). Where indicated, enzyme activity in the presence of peptide was expressed as a % of the enzyme alone. Data were expressed as mean±SEM and statistical significance was determined using t-tests or one-way ANOVAs followed by Tukey's post-hoc test. P<0.05 was considered as statistically significant. […]
SEQ ID NO:2 was assessed in a QFS assay against enzymes NEP, ECE1, ECE2, ACE1, ACE2, IDE and MMP-2 using the method in Example 2 and the following procedure. […]

NEP = target: T2, NEP (Homo sapiens, UniProt P08473); assay: Cleavage of synthetic Aβ40 by NEP, LCMS (Example 7); format: biochemical; details: peptide 9 μM
T2 construct: purchased R & D systems 1182-ZNC-010
Experimental: Synthetic Aβ40 (0.10 μg/μL) was added to a reaction mixture containing NEP (0.05 ng/μL) pre-incubated with SEQ ID NO:2 or scrambled control (9 μM) for 1 h at 37° C. Synthetic Aβ42 (0.05 μg/μL) was added to a reaction mixture containing NEP (0.15 ng/μL) preincubated with either scrambled control or SEQ ID NO:2 (9 μM) for 1 h at 37° C. Samples containing enzyme alone had only NEP buffer (Table 2). The cleavage reaction was allowed to continue in a thermomixer at 37° C. Aliquots of equal volume were taken over 24 h. Aliquots were immediately acidified with 0.1% trifluoroacetic acid (TFA) to terminate enzyme activity and snap frozen in dry ice. Samples were stored at −80° C. until analysed by LCMS.
Samples were analysed by LC-MS/MS using a quadrupole TOF mass spectrometer (MicroTOFq, Bruker Daltonics, Bremen, Germany) coupled online with a 1200 series nano-HPLC (Agilent technologies, Santa Clara, CA, USA). Samples were injected onto a zorbax 300SB reversed phase trap column with 95% solvent A (0.1% formic acid) at a flow rate of 10 μL/minute. The peptides were eluted over a 10-min gradient to 70% solvent B (80% acetonitrile, 0.1% formic acid) and separated on a 15-cm, 75-μmID zorbax 300SB nanocolumn. The eluent was nebulised and ionised using the Bruker nano-ESI source with a capillary voltage of 4500 V, dry gas at 180° C., flow rate of 5 L/minute and nebuliser gas pressure at 300 mbar. The MS acquisition was in selected ion monitoring mode after selected ion extraction of the MS spectra. Prior to analysis, the qTOF mass spectrometer was calibrated using a 1:50 dilution tuning mix (Agilent technologies, Santa Clara, CA, USA). Data from MS run were processed in Skyline version 19.1.0.193 (Uni. Of Washington, WA, USA) to perform ion chromatogram extractions and peak integrations.

STZ diabetic mouse model = assay: STZ diabetic mouse model, inflammation and fibrosis (Example 12); format: in vivo; details: 1 mg/kg subcutaneously by minipump, 4 weeks
Experimental: Mice were divided into two groups, all mice were treated with STZ (150 mg/kg) 1 week before starting treatment. Prior to STZ treatment, urine and blood samples were taken and a blood glucose test undertaken. Similarly, before treatment began, one week post STZ administration, urine and blood samples were taken and blood glucose was assessed. The two treatment groups were then treated with either vehicle only or SEQ ID NO: 2 (1 mg/kg) subcutaneously by minipump. The mice were then monitored for 4 weeks before sacrifice. Monitoring included assessing the weight of each animal every day, and taking urine and blood samples and measuring blood glucose at 2 weeks post treatment and immediately before sacrifice.

T2 sequence (P08473 whole entry): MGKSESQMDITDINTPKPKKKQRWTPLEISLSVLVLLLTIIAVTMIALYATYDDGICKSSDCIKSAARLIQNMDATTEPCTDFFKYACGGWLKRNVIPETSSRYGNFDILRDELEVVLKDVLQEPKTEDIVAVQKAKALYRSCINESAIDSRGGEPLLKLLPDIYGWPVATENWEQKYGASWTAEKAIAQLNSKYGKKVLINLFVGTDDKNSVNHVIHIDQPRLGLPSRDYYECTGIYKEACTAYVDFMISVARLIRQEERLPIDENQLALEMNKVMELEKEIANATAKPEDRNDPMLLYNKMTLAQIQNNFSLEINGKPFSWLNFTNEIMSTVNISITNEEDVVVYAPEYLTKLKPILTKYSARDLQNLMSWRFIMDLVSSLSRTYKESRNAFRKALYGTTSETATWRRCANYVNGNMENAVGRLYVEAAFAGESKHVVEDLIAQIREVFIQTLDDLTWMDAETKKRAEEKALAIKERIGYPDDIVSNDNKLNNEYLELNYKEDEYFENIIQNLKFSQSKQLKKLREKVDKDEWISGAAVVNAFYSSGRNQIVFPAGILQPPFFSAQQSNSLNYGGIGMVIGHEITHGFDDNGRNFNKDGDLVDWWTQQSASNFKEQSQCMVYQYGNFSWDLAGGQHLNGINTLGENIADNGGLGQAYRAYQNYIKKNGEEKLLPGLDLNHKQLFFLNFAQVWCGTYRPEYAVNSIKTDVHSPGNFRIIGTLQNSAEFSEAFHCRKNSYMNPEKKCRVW

Question: With “H-SLFELGKMIL-NH2 [SEQ ID NO:2, H2N-SLFELGKMIL-NH2]” as the substance, how does the “activity of MMP-2 in the presence of peptide” value (MMP-2) read?
Answer: 0.7±0.2 μmol of substrate cleaved

Question: And the “effect on the activity of MMP-2” value (MMP-2)?
Answer: did not affect

Question: What about the “decrease in Aβ1-21 peak area over 4-20 h” value (NEP; Aβ40 cleavage) of the same substance?
Answer: 7.5×10^7±1.3×10^7 arbitrary units

Question: What about the “levels of Aβ1-21 (peak area) at 4 h” value (NEP; Aβ40 cleavage, 4 h) of the same substance?
Answer: 7.9×10^7±1.3×10^7 arbitrary units

Question: What about the “levels of Aβ1-21 (peak area) at 24 h” value (NEP; Aβ40 cleavage, 24 h) of the same substance?
Answer: 4.1×10^6±4.8×10^5 arbitrary units

Question: What about the “peak area corresponding to Aβ1-12 after 24 h” value (NEP; Aβ40 cleavage, 24 h) of the same substance?
Answer: 1.3×10^8±7.9×10^6 arbitrary units

Question: What about the “time at which breakdown of Aβ40 was complete” value (NEP; NEP 0.05 ng/μL) of the same substance?
Answer: 4 h

Question: And the “amount of Aβ40 remaining after 4 h (peak area)” value (NEP; NEP 0.05 ng/μL, Aβ40 0.10 μg/μL, 4 h)?
Answer: 1.3×10^6±2.7×10^5 arbitrary units

Question: And the “amount of Aβ40 remaining after 24 h, SEQ ID NO:2 versus scrambled control” value (NEP; 24 h)?
Answer: no significant difference

Question: And the “blood glucose compared with vehicle treated mice” value (STZ diabetic mouse model)?
Answer: lower

Question: What about the “kidney IL-6 expression compared with vehicle treated mice” value (STZ diabetic mouse model) of the same substance?
Answer: lower

Question: What about the “kidney collagen I expression compared with vehicle treated mice” value (STZ diabetic mouse model) of the same substance?
Answer: lower

Question: What about the “kidney collagen III expression compared with vehicle treated mice” value (STZ diabetic mouse model) of the same substance?
Answer: lower
